ChEMBL document CHEMBL1122404, “Khellin analogues. 1. General topological requirements for lipid-altering activity in furochromones” (1983)

Experiments:
[1] = Serum lipoprotein (VLDL+LDL) cholesterol alteration by the compound at 50 mg/kg/day dose in normocholesterolemic Male S.E.A. Japanese quail with 5-7 weeks of age; format: functional, Coturnix
[2] = Serum high density lipoprotein (HDL) cholesterol alteration by the compound at 50 mg/kg/day dose in normocholesterolemic Male S.E.A. Japanese quail with 5-7 weeks of age; format: functional, Coturnix
[3] = Total Serum lipoprotein cholesterol alteration by the compound at 50 mg/kg/day dose in normocholesterolemic Male S.E.A. Japanese quail with 5-7 weeks of age

Compound	T/C [1]	T/C [2]	T/C [3]
COc1c2c(c(OC)c3c(=O)cc(C)oc13)CCO2	0.74	1.17	1.07
COc1c2occc2c(OC)c2c(=O)cc(CN(C)C)oc12	0.37	0.92	0.82
COc1c2occc2c(OC)c2c(=O)cc(C(C)C)oc12	0.49	1.4	1.17
Cc1cc(=O)c2cc3ccoc3cc2o1	0.84	1.05	1.01
COc1c2occc2c(OC)c2c(=O)ccoc12	0.42	1.36	1.15
COc1c2c(c(OC)c3occc13)OC(C)CC2=O (stereo unspecified)	0.55	1.45	1.24
COCc1cc(=O)c2c(OC)c3ccoc3c(OC)c2o1	0.57	1.63	1.35
COc1c2occc2c(OC)c2c(=O)cc(CSc3ccccc3)oc12	0.43	1.33	1.09
COc1c2occc2cc2c(=O)cc(C)oc12	0.77	1.19	1.09
COc1c2occc2c(OC)c2c(=O)cc(C)oc12 [KHELLIN]	0.37	1.46	1.21
COc1c2occc2c(OC)c2c(=O)cc(CSC)oc12 [TIMEFURONE]	0.47	1.68	1.36
COc1c2ccoc2cc2oc(C)cc(=O)c12 [VISNAGIN]	0.51	1.42	1.21
